Biological target: T1, Dopamine β-hydroxylase (Bos taurus, UniProt P15101)
T1 construct: Dopamine β-hydroxylase was obtained from beef adrenal glands; from tissue; host or cells: beef adrenal glands
T1 sequence (P15101 1-610): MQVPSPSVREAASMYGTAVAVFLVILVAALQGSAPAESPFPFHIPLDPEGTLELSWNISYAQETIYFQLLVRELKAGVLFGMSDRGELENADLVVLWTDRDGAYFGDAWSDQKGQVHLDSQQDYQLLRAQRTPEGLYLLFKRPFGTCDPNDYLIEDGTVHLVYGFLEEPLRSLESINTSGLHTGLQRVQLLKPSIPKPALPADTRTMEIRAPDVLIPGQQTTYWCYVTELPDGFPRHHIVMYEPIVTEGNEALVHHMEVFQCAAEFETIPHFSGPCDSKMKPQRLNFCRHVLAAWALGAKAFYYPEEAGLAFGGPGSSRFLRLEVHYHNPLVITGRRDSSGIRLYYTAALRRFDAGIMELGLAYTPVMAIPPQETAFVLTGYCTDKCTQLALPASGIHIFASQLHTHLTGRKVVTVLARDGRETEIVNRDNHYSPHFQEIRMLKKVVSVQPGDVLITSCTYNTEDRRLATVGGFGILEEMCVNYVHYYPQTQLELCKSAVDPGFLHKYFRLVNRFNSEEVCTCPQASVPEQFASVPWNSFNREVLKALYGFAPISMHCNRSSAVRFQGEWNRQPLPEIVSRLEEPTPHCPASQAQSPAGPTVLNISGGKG
Assay: Dopamine β-Hydroxylase Inhibition Assay
Format: biochemical
Conditions: 5 mM tyramine, pH 5.5, 37° C., 10 minutes; enzyme from beef adrenal glands; read-out: I50 (inhibition median) (converted)
Experimental: Dopamine β-hydroxylase was obtained from beef adrenal glands. Minced adrenals were homogenized with 0.025M potassium phosphate buffer (pH--6.4) and centrifuged. The supernatant was adjusted to a final concentration of 1% Triton X-100 (Calbiochem. Inc.) by the addition of one-fourth volume of a 5% Triton X-100 solution and stirred at room temperature for 30 minutes. The Triton X-100 treated supernatant was centrifuged, and fractionated with a 66% aqueous ammonium sulfate solution. The resulting precipitate was homogenized in 0.025M potassium phosphate buffer (pH=6.4) and dialyzed. The dialysate was applied to a DE-52 Cellulose Column (Whatman Co.), pre-equilibrated with 0.005M potassium phosphate buffer (pH=6.4), and preloaded with about 2 cm of acid-washed activated carbon, located directly above the cellulose resin. […]
The assay for the dopamine β-hydroxylase inhibition was carried out in a 1 ml incubation mixture containing 5 mM tyramine (freashly prepared), 1.5 mM ascorbic acid (prepared monthly), 0.4 mM sodium fumarate, 0.045 mM pargyline, catalase ([…] per ml, 500 units) and 0.065M sodium acetate buffer, pH 5.5. […] The optical absorbance of the organic phase was measured at 280 nm. […]

Structure (SMILES)	IC50 [nM]
Cc1nc(O)c(O)cc1O [Compound II]	~262
Cc1nc(O)c(O)c(CO)c1O [Compound I]	~158
